Assay results from ChEMBL document CHEMBL1201862, “PubChem BioAssay data set” (2004).
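Interpolation was linear, between the two tested concentrations surrounding the appropriate level; five concentrations were tested over 48 hours in 96-well plates. GI50 = concentration required for 50% inhibition of growth.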 The source made the active and inactive calls. No stated cut-off is given here; in the data, active = GI50 up to about 1.1 µM and inactive = higher.

Tests used:
Assay in all cases: DTP human tumour cell line panel, 48 h
OVCAR-5 = test system: OVCAR-5
SNB-75 = test system: SNB-75
NCI-H460 = test system: NCI-H460
SK-OV-3 = test system: SK-OV-3
SNB-19 = test system: SNB-19
U-251 = test system: U-251
HCT-15 = test system: HCT-15
MCF7 = test system: MCF7
SK-MEL-5 = test system: SK-MEL-5
OVCAR-4 = test system: OVCAR-4
HT-29 = test system: HT-29
K562 = test system: K562
TK-10 = test system: TK-10
UACC-62 = test system: UACC-62
SR = test system: SR
MOLT-4 = test system: MOLT-4
LOX IMVI = test system: LOX IMVI
SF-539 = test system: SF-539
SF-268 = test system: SF-268
KM12 = test system: KM12
BT-549 = test system: BT-549
M14 = test system: M14
NCI/ADR-RES = test system: NCI/ADR-RES
ACHN = test system: ACHN
OVCAR-3 = test system: OVCAR-3
SN12C = test system: SN12C
UO-31 = test system: UO-31
SK-MEL-28 = test system: SK-MEL-28
NCI-H226 = test system: NCI-H226
RPMI-8226 = test system: RPMI-8226
CAKI-1 = test system: CAKI-1
A498 = test system: A498
EKVX = test system: EKVX
HL-60 = test system: HL-60
A549 = test system: A549
PC-3 = test system: PC-3
RXF 393 = test system: RXF 393
HCC 2998 = test system: HCC 2998
Hs-578T = test system: Hs-578T
786-0 = test system: 786-0
SW-620 = test system: SW-620
IGROV-1 = test system: IGROV-1
NCI-H23 = test system: NCI-H23
CCRF-CEM = test system: CCRF-CEM
OVCAR-8 = test system: OVCAR-8
SF-295 = test system: SF-295
DU-145 = test system: DU-145
HOP-92 = test system: HOP-92
Malme-3M = test system: Malme-3M
SK-MEL-2 = test system: SK-MEL-2
COLO 205 = test system: COLO 205
MDA-MB-435 = test system: MDA-MB-435
UACC-257 = test system: UACC-257
HOP-62 = test system: HOP-62

Measured: GI50

COc1ccc2c(c1)C/C(=C\c1cccc3ccccc13)C2=O
active: RXF 393 0.0902 µM
inactive: OVCAR-5 94 µM | SNB-75 12.4 µM | NCI-H460 4.99 µM | SK-OV-3 16.8 µM | SNB-19 69.2 µM | U-251 8.71 µM | MCF7 5.19 µM | SK-MEL-5 4.05 µM | OVCAR-4 67.9 µM | HT-29 4.91 µM | K562 2.36 µM | TK-10 6.07 µM | UACC-62 12.5 µM | SR 4.65 µM | MOLT-4 4.89 µM | LOX IMVI 5.07 µM | SF-539 7.33 µM | SF-268 18.4 µM | KM12 5.41 µM | BT-549 5.26 µM | M14 5.97 µM | NCI/ADR-RES 4.66 µM | ACHN 27.6 µM | OVCAR-3 13.4 µM | SN12C 8.87 µM | UO-31 44.5 µM | SK-MEL-28 3.93 µM | NCI-H226 10.5 µM | RPMI-8226 25.3 µM | CAKI-1 > 100 µM | A498 23.4 µM | EKVX 18.5 µM | HL-60 4.95 µM | A549 6.89 µM | PC-3 16.2 µM | HCC 2998 5.04 µM | Hs-578T 84.9 µM | 786-0 15.4 µM | SW-620 3.98 µM | IGROV-1 17.3 µM | NCI-H23 2.84 µM | CCRF-CEM 2.65 µM | OVCAR-8 21.7 µM
4.7 µM: HCT-15

O=C(N/N=C\C(F)(F)F)c1ccncc1
inactive: OVCAR-5 > 100 µM | SF-295 30.5 µM | SNB-75 32.2 µM | DU-145 8.57 µM | NCI-H460 19.9 µM | HOP-92 > 100 µM | Malme-3M > 100 µM | SK-OV-3 31.6 µM | SNB-19 71.9 µM | U-251 26.9 µM | MCF7 86.3 µM | SK-MEL-5 20.5 µM | OVCAR-4 > 100 µM | HT-29 7.59 µM | K562 7.62 µM | TK-10 22.8 µM | UACC-62 37.2 µM | SR 35.2 µM | SK-MEL-2 > 100 µM | MOLT-4 21.4 µM | LOX IMVI > 100 µM | KM12 8.09 µM | COLO 205 6.14 µM | BT-549 > 100 µM | M14 26 µM | NCI/ADR-RES > 100 µM | MDA-MB-435 9.59 µM | OVCAR-3 22.3 µM | UACC-257 49.3 µM | SN12C 92.3 µM | UO-31 83.6 µM | SK-MEL-28 80.7 µM | HOP-62 24.7 µM | NCI-H226 62.2 µM | RPMI-8226 > 100 µM | CAKI-1 42.8 µM | A498 46.9 µM | HL-60 > 100 µM | PC-3 26.9 µM | RXF 393 13.9 µM | HCC 2998 18.5 µM | Hs-578T 38.6 µM | SW-620 37.8 µM | IGROV-1 35.2 µM | NCI-H23 8.36 µM | CCRF-CEM 3.48 µM | OVCAR-8 48.2 µM
26.9 µM: HCT-15
